Measured values: patent publication US20120070511A1, “MITOCHONDRIAL INHIBITORS AND USES THEREOF” (priority 2009, published 2012)
Where two headings read alike, the source gives them in different places.

How the values were obtained:
Type in all cases: cell-based
[1] = test system: MM.1S cells; assay: Reversal of CCCP induced toxicity (trypan blue exclusion); conditions: 10 μM BAPTA-AM or 50 μM of Z-VAD
Protocol: A) Reversal of CCCP induced toxicity by either 10 μM BAPTA-AM or 50 μM of Z-VAD was investigated using trypan blue exclusion assays. The bars represent the average of triplicate samples +SD. B) ATP levels were assayed following 6 h of treatment with indicated concentrations of CCCP. The bars represent the average of triplicate samples +SD. C) Induction of UPR, activation of AMPK pathway and cleavage of caspase 3 was analyzed by western blots following 24 h treatment with indicated concentrations of CCCP in MM.1S and REH cell lines. β-Actin was used as a loading control. D) The quantification of phosphorylated AMPK and total AMPK bands in the previous panel was done using a Bio-Rad gel reader which employs Quality I software. The bars represent the fold increase in the ratio of p-AMPK/AMPK in treated versus untreated samples from three independent experiments +SD.
(§1) Cytotoxicity assay: Cells were incubated for 24 h at 37° C. in 5% CO2 at which time drug treatments began and continued for 24 h. At this time cells were transferred to a tube followed by centrifugation at 400 g for 5 min. The pellets were resuspended in 1 ml of Hanks solution and analyzed by Vi-Cell (Beckman Coulter, Fullerton, Calif., USA) cell viability analyzer.

[2] = test system: B-cell leukemia lines (NALM6, REH)
Protocol: as §1

[3] = test system: MM cell lines (MM.1S, 8226, KMS-11)
Protocol: as §1

[4] = test system: non-myeloma cell lines (NALM6, 143B, MDA-MB-435, 1420)
Protocol: (§2) Cytotoxicity assay: Cells were incubated for 24 hr at 37° C. in 5% CO2 at which time drug treatments began and continued for 24 hr. At this time attached cells were trypsinized and combined with their respective culture media while suspension cells were directly transferred to a tube followed by centrifugation at 400 g for 5 min. The pellets were resuspended in 1 ml of Hanks solution and analyzed by Vi-Cell (Beckman Coulter, Fullerton, Calif.) cell viability analyzer.

[5] = test system: multiple myeloma cell lines (MM.1S, 8226, KMS-11, U266)
Protocol: as §2

[6] = test system: CHOP/GADD153 and cleaved caspase 3 in MM.1S, 8226, KMS-11; assay: Western blot of CHOP/GADD153 and cleaved caspase 3 in 3 MM cell lines; conditions: concentrations of FIG. 13
Protocol: . Induction of UPR-mediated apoptosis following treatment of 3 MM cell lines with four different mitochondrial inhibitors for various time points was assayed by western blot analysis of CHOP and cleaved caspase 3.
Western blot analysis: Western blots were performed. Membranes were probed with monoclonal rabbit anti-GRP94, anti GRP-78, anti-PDI, anti-CHOP/GADD153, anti-cleaved caspase 3 (Cell Signaling, Danvers, Mass., USA) and monoclonal mouse anti-β-actin (Sigma, St. Louis, Mo., USA).

[7] = test system: CHOP/GADD153 and cleaved caspase 3 in 4 MM cell lines; assay: Western blot of CHOP/GADD153 and cleaved caspase 3 (UPR-mediated apoptosis); conditions: all 4 MM cell lines
Protocol: Western Blot analysis: Cells are plated at 10^4 cell/cm^−2 for attached cells and 3×10^5/ml for suspension cells and grown under drug treatment for the indicated times. At the end of the treatment period, cells are collected and lysed with 1% SDS in 80 mM Tris-HCL (ph 7.4) buffer supplemented with a proteinase inhibitor cocktail. DNA is fragmented by sonication and protein concentrations are measured by microBCA protein assay kit (Pierce, Rockford, Ill.). Samples are mixed with 3× Laemmli sample buffer (Cell Signaling, Danvers, Mass.) and 40 μg of protein was run on a 12% SDS-polyacrylamide gel. Gels are transferred to nitrocellulose membranes (Amersham, Piscataway, N.J.) and probed with monoclonal rabbit anti-GRP94, anti GRP-78, anti-PDI, anti-CHOP/GADD153, anti-cleaved caspase 3 (Cell Signaling, Danvers, Mass.) and monoclonal mouse anti-β-actin (Sigma, St. Louis, Mo.). Following probing, membranes are washed and incubated with HRP-conjugated secondary antibody (Invitrogen, Carlsbad, Calif.). Following addition of 1:3 diluted femto-chemiluminescent substrate (Pierce, Rockford, Ill.) membranes were exposed to blue autoradiographic film (ISC bioexpress, Kaysville, Utah). Where indicated, membranes were stripped with Stripping Buffer (Pierce, Rockford, Ill.) and reprobed with anti-β-actin (Sigma-Aldrich, St. Louis, Mo.) primary antibody. When needed, the blots were quantified using Bio-Rad gel reader which employs Quality I software (Bio-Rad, Hercules, Calif.).

[8] = test system: non-myeloma cell lines (NALM6, MDA-MB-435, 143B, 1420); assay: Measurement of cytoplasmic calcium (indo-1 fluorescence ratio 400/500 nm); conditions: for increase in cytoplasmic Ca2+ after mitochondrial inhibitor: non-myeloma cell lines (oligomycin: all cell lines)
Protocol: (§3) Measurement of cytoplasmic calcium: Cytoplasmic Ca^2+ concentration was estimated by using the cell permeant fluorochrome indo-1-AM (Invitrogen, Carlsbad, Calif.). When excited at 355 nm, the maximum emission of indo-1 shifts from 500 nm to 400 nm following its binding to free Ca^2+. Thus, the ratio of reading at 400 nm and 500 nm correlates with concentration of cytoplasmic Ca^2+. Experiments were performed in cells loaded with indo-1 by incubating them with 2.5 μM of this fluorochrome at 37° C. for 45 min. Cells were then centrifuged at 400 g for 5 min and resuspended in their growth medium followed by distribution of 100 μl of aliquots into 96 well optical bottom plates (Nalge Nunc, Int., Rochester, N.Y.) and fluorescence was measured by Spectra Max Gemini Plus (Molecular Devices, Sunnyvale, Calif.). The average of triplicates from untreated samples was used as control reading and increase in cytoplasmic Ca^2+ was calculated as percent increase from control samples.

[9] = test system: MM cell lines (MM1.S, 8226, KMS-11, U266); assay: as above; conditions: for effect on mitochondrial Ca2+ uptake / cytoplasmic Ca2+ after mitochondrial inhibitor: MM cell lines; for effect on mitochondrial Ca2+ uptake: estimated from cytoplasmic Ca2+
Protocol: as §3

[10] = test system: MM (MM.1S, 8226, KMS-11) and B-cell leukemia (NALM6, REH) cell lines; assay: ER Ca2+ leak: cytoplasmic Ca2+ (indo-1) after thapsigargine, Example 2
Protocol: Measurement of cytoplasmic and mitochondrial calcium: Cytoplasmic Ca^2+ concentration was estimated by using the cell permeant ratiometric fluorochrome indo-1-AM (Invitrogen, Carlsbad, Calif., USA) while mitochondrial Ca^2+ was measured by X-Rhod-1-AM (Invitrogen, Carlsbad, Calif., USA). In the latter assay, to normalize mitochondrial Ca^2+ signal to mitochondria number, Mitotracker Green (Invitrogen, Carlsbad, Calif., USA) fluorescence was simultaneously analyzed. Experiments were performed in cells loaded with either 2.5 μM of indo-1 or 5 μM X-rhod-1 and 250 nM of Mitotracker at 37° C. for 45 min. Cells were, then, centrifuged at 400 g for 5 min and resuspended in their growth medium followed by distribution of 100 μl of aliquots into 96 well optical bottom plates (Nalge Nunc, Int., Rochester, N.Y., USA) and fluorescence was measured by Spectra Max Gemini Plus (Molecular Devices, Sunnyvale, Calif., USA). The average of triplicates from untreated samples was used as control reading and increase in cytoplasmic or mitochondrial Ca^2+ was calculated as percent increase from control samples.
Due to the high levels of glycoprotein production in MM cells, it was investigated whether there is a greater ER Ca^2+ leak in these cells as compared to Bcells. As shown in previous reports, ER Ca^2+ leak can be assayed indirectly by measuring cytoplasmic Ca^2+ concentration following inhibition of SERCA by thapsigargine.

[11] = 24 h, at concentrations toxic to MM cell lines
[12] = 24 h, at doses toxic to MM cell lines

For `CC(=O)OCOC(=O)CN(CC(=O)OCOC(C)=O)c1ccccc1OCCOc1ccccc1N(CC(=O)OCOC(C)=O)CC(=O)OCOC(C)=O` [BAPTA-AM], the “reversal of CCCP induced toxicity” value [1] was “does not reverse the toxicity of CCCP”.

`CC(C)OC(=O)C(C)(C)Oc1ccc(C(=O)c2ccc(Cl)cc2)cc1` [fenofibrate] was tested, and the cytotoxicity [2, 11] was “less toxic to B-cell leukemia lines”, the “cytotoxicity (cell death)” value [3] was “significant toxicity” and the cytotoxicity [4, 12] was “not toxic to non-myeloma cells”. The “cytotoxicity (cell death)” value [5] was “significant toxicity”.

For `CC[C@H]1/C=C/C=C/C[C@@H](C)[C@H](O)[C@@](C)(O)C(=O)[C@@H](C)[C@H](O)[C@@H](C)C(=O)[C@@H](C)[C@H](O)[C@@H](C)/C=C/C(=O)O[C@@H]2[C@H](C)[C@H](CC1)O[C@]1(CC[C@H](C)[C@H](C[C@@H](C)O)O1)[C@H]2C` [oligomycin], the “CHOP/GADD153 expression relative to CCCP” value [6] was “comparable to that induced by CCCP”, the cytotoxicity [2, 11] was “little or no toxicity” and the “cytotoxicity (cell death)” value ([3]; 24 h, all 3 MM cell lines) was “significant cell death”. For the same compound, the “treatment time at which CHOP/GADD153 expression is noted” value [7] was 6 h, the “increase in cytoplasmic Ca2+ after mitochondrial inhibitor” value (“increase … after mitochondrial inhibitor” for short) [8] was “minimal or no effect” and the “effect on mitochondrial Ca2+ uptake” value [9] was “little or no effect”. For the same compound, the cytotoxicity [4, 12] was “little or no toxicity”, the “cytotoxic potency compared to the other mitochondrial inhibitors” value ([5]; 24 h, MM cells) was “less toxic potency in MM cells when compared to other inhibitors” and the “cytotoxicity (cell death)” value ([5]; 24 h treatment, all 4 MM cell lines) was “significant cell death”.

`C=C(C)[C@H]1Cc2c(ccc3c2O[C@@H]2COc4cc(OC)c(OC)cc4[C@@H]2C3=O)O1` [rotenone] was tested, and the “CHOP/GADD153 expression relative to CCCP” value [6] was “less CHOP/GADD153 expression than CCCP”, the cytotoxicity [2] was “little or no toxicity” and the “cytotoxicity (cell death)” value [3] was “significant cell death”. The “treatment time at which CHOP/GADD153 expression is noted” value [7] was 6 h, the “increase … after mitochondrial inhibitor” value [8] was “not seen in non-myeloma cell lines except for NALM6” and the “cytoplasmic Ca2+ after mitochondrial inhibitor” value [9] was “immediate increase in cytoplasmic Ca^2+”. For the same compound, the “effect on mitochondrial Ca2+ uptake” value [9] was “equally inhibit mitochondrial Ca^2+ uptake”, the cytotoxicity [4] was “little or no toxicity” and the “cytotoxic potency compared to the other mitochondrial inhibitors” value [5] was “equipotency in inducing cytotoxicity in MM cells”. The “cytotoxicity (cell death)” value [5] was “significant cell death”.

In the case of `C/C=C(/C)C(=O)O[C@H]1C(C)=C2[C@H]([C@@H]1OC(=O)CCCCCCC)[C@@](C)(OC(C)=O)C[C@H](OC(=O)CCC)[C@@]1(O)[C@H]2OC(=O)[C@@]1(C)O` [thapsigargine], the cytotoxicity [2, 11] is reported as “resistant”, the “cytotoxicity (cell death)” value [3] is reported as “sensitive” and the “cytoplasmic Ca2+ after thapsigargine” value ([8]; 143B and 1420, 30 min. after addition) is reported as “significantly increases”. For the same compound, the “cytoplasmic Ca2+ after thapsigargine” value ([8]; NALM6 and MDA-MB-435) was “little or no change”, the “cytoplasmic Ca2+ increase after thapsigargine in 8226” value ([9]; 8226 compared to KMS-11 or U266) was “increase less than that observed in KMS-11 or U266 cell lines” and the “lag before increase in cytoplasmic Ca2+” value ([9]; U266 (printed U226) cell line) was about 20 min. The “cytoplasmic Ca2+ concentration after thapsigargine” value ([9]; immediately after addition, MM1.S, 8226 and KMS-11) was “significantly increases”, the “order of ER Ca2+ leak after thapsigargine” value ([10]; MM cell lines) was “MM1.S>8226>KMS-11” and the “cytoplasmic Ca2+ concentration at new equilibrium” value ([10]; after 30 min, MM versus B-cell leukemias) was “all 3 MM cell lines had significantly greater cytoplasmic Ca^2+ concentration than the 2 B-cell leukemias”. For the same compound, the “cytoplasmic Ca2+ concentration” value ([10]; within 5 min after addition, all five cell lines) was “significantly increases”, the cytotoxicity [4, 12] was “resistant” and the “cytotoxicity (cell death)” value [5] was “sensitive”. The “order of sensitivity among MM cell lines” value ([5]; 24 h treatment) was “MM.1S>8226>KMS-11>U266”.

With `Cc1c(C)c2c(c(C)c1O)CCC(C)(COc1ccc(CC3SC(=O)NC3=O)cc1)O2` (stereo not drawn) [troglitazone] the cytotoxicity [2, 11] was “less toxic to B-cell leukemia lines”, the “cytotoxicity (cell death)” value [3] was “significant toxicity” and the cytotoxicity [4, 12] was “not toxic to non-myeloma cells”. For the same compound, the “cytotoxicity (cell death)” value [5] was “significant toxicity”.

Z-VAD was tested, and the “reversal of CCCP induced toxicity” value [1] was “can reverse the majority of CCCP toxicity”.

With antimycin A the “CHOP/GADD153 expression relative to CCCP” value [6] was “comparable to that induced by CCCP”, the cytotoxicity [2] was “little or no toxicity” and the “cytotoxicity (cell death)” value [3] was “significant cell death”. For the same compound, the “treatment time at which CHOP/GADD153 expression is noted” value [7] was 6 h, the “increase … after mitochondrial inhibitor” value [8] was “not seen in non-myeloma cell lines except for NALM6” and the “cytoplasmic Ca2+ after mitochondrial inhibitor” value [9] was “immediate increase in cytoplasmic Ca^2+”. For the same compound, the cytotoxicity [4] was “little or no toxicity”, the “cytotoxic potency compared to the other mitochondrial inhibitors” value [5] was “less toxic than these two mitochondrial inhibitors” and the “cytotoxicity (cell death)” value [5] was “significant cell death”.
